Values quoted from earlier work as cited in US8722101B2, “Use of iron(III) complex compounds” (Vifor (International) AG, priority 2005, dated 2014).

Settings: children with iron-related anaemia; administration for 75 days

Structure (SMILES): O=S(=O)([O-])[O-].[Fe+2] [iron sulfate]
- improvement in the mental and psychomotor development: did not find any improvement
